Assay results from the NIST ThermoML archive (doi:10.1021/je400056z).

Test: xn = mol fraction of the nth substance listed
Conditions: Liquid, Vibrating tube method

CCCCCCCCCCCCC [tridecane] + O=C=O
Conditions	mass density [kg/m3]
313.15 K, 9000 kPa, x2 = 0.0955	750.6
313.15 K, 9000 kPa, x2 = 0.2526	754.3
313.15 K, 9000 kPa, x2 = 0.7549	791.4
313.15 K, 9000 kPa, x2 = 0.8978	790.8
313.15 K, 10000 kPa, x2 = 0.0955	751.4
313.15 K, 10000 kPa, x2 = 0.2526	755.1
313.15 K, 10000 kPa, x2 = 0.7549	794.4
313.15 K, 10000 kPa, x2 = 0.8978	795.2
313.15 K, 11000 kPa, x2 = 0.0955	752.2
313.15 K, 11000 kPa, x2 = 0.2526	756
313.15 K, 11000 kPa, x2 = 0.7549	797.7
313.15 K, 11000 kPa, x2 = 0.8978	799.4
313.15 K, 12000 kPa, x2 = 0.0955	753
313.15 K, 12000 kPa, x2 = 0.2526	756.8
313.15 K, 12000 kPa, x2 = 0.7549	800.8
313.15 K, 12000 kPa, x2 = 0.8978	803.7
313.15 K, 13000 kPa, x2 = 0.0955	753.7
313.15 K, 13000 kPa, x2 = 0.2526	757.6
313.15 K, 13000 kPa, x2 = 0.7549	803.7
313.15 K, 13000 kPa, x2 = 0.8978	807.9
313.15 K, 14000 kPa, x2 = 0.0955	754.5
313.15 K, 14000 kPa, x2 = 0.2526	758.4
313.15 K, 14000 kPa, x2 = 0.7549	806.6
313.15 K, 14000 kPa, x2 = 0.8978	812
313.15 K, 15000 kPa, x2 = 0.0955	755.2
313.15 K, 15000 kPa, x2 = 0.2526	759.2
313.15 K, 15000 kPa, x2 = 0.7549	809.4
313.15 K, 15000 kPa, x2 = 0.8978	815.9
313.15 K, 16000 kPa, x2 = 0.0955	756
313.15 K, 16000 kPa, x2 = 0.2526	759.9
313.15 K, 16000 kPa, x2 = 0.7549	812.1
313.15 K, 16000 kPa, x2 = 0.8978	819.5
313.15 K, 17000 kPa, x2 = 0.0955	756.6
313.15 K, 17000 kPa, x2 = 0.2526	760.7
313.15 K, 17000 kPa, x2 = 0.7549	814.8
313.15 K, 17000 kPa, x2 = 0.8978	823.1
313.15 K, 18000 kPa, x2 = 0.0955	757.3
313.15 K, 18000 kPa, x2 = 0.2526	761.4
313.15 K, 18000 kPa, x2 = 0.7549	817.4
313.15 K, 18000 kPa, x2 = 0.8978	826.6
313.15 K, 19000 kPa, x2 = 0.0955	758
313.15 K, 19000 kPa, x2 = 0.2526	762.1
313.15 K, 19000 kPa, x2 = 0.7549	819.8
313.15 K, 19000 kPa, x2 = 0.8978	830.1
313.15 K, 20000 kPa, x2 = 0.0955	758.7
313.15 K, 20000 kPa, x2 = 0.2526	762.8
313.15 K, 20000 kPa, x2 = 0.7549	822.2
313.15 K, 20000 kPa, x2 = 0.8978	833.3
313.15 K, 21000 kPa, x2 = 0.0955	759.3
313.15 K, 21000 kPa, x2 = 0.2526	763.5
313.15 K, 21000 kPa, x2 = 0.7549	824.6
313.15 K, 21000 kPa, x2 = 0.8978	836.4
313.15 K, 22000 kPa, x2 = 0.0955	759.9
313.15 K, 22000 kPa, x2 = 0.2526	764.2
313.15 K, 22000 kPa, x2 = 0.7549	826.9
313.15 K, 22000 kPa, x2 = 0.8978	839.5
313.15 K, 23000 kPa, x2 = 0.0955	760.5
313.15 K, 23000 kPa, x2 = 0.2526	764.8
313.15 K, 23000 kPa, x2 = 0.7549	829.1
313.15 K, 23000 kPa, x2 = 0.8978	842.6
313.15 K, 24000 kPa, x2 = 0.0955	761.1
313.15 K, 24000 kPa, x2 = 0.2526	765.4
313.15 K, 24000 kPa, x2 = 0.7549	831.2
313.15 K, 24000 kPa, x2 = 0.8978	845.4
313.15 K, 25000 kPa, x2 = 0.0955	761.7
313.15 K, 25000 kPa, x2 = 0.2526	766
313.15 K, 25000 kPa, x2 = 0.7549	833.3
313.15 K, 25000 kPa, x2 = 0.8978	848.2
313.16 K, 8000 kPa, x2 = 0.5259	768.4
313.16 K, 9000 kPa, x2 = 0.5259	769.6
313.16 K, 10000 kPa, x2 = 0.5259	770.7
313.16 K, 11000 kPa, x2 = 0.5259	771.9
313.16 K, 12000 kPa, x2 = 0.5259	773
313.16 K, 13000 kPa, x2 = 0.5259	774.1
313.16 K, 14000 kPa, x2 = 0.5259	775.1
313.16 K, 15000 kPa, x2 = 0.5259	776.2
313.16 K, 16000 kPa, x2 = 0.5259	777.2
313.16 K, 17000 kPa, x2 = 0.5259	778.2
313.16 K, 18000 kPa, x2 = 0.5259	779.2
313.16 K, 19000 kPa, x2 = 0.5259	780.2
313.16 K, 20000 kPa, x2 = 0.5259	781.1
313.16 K, 21000 kPa, x2 = 0.5259	782
313.16 K, 23000 kPa, x2 = 0.5259	783.8
313.16 K, 24000 kPa, x2 = 0.5259	784.6
313.16 K, 25000 kPa, x2 = 0.5259	785.5
323.14 K, 11000 kPa, x2 = 0.8978	772.5
323.14 K, 12000 kPa, x2 = 0.8978	777.9
323.14 K, 13000 kPa, x2 = 0.8978	782.8
323.14 K, 14000 kPa, x2 = 0.8978	787.3
323.14 K, 15000 kPa, x2 = 0.8978	791.5
323.14 K, 16000 kPa, x2 = 0.8978	795.7
323.14 K, 17000 kPa, x2 = 0.8978	799.7
323.14 K, 18000 kPa, x2 = 0.8978	803.4
323.14 K, 19000 kPa, x2 = 0.8978	807.2
323.14 K, 20000 kPa, x2 = 0.8978	810.7
323.14 K, 21000 kPa, x2 = 0.8978	814
323.14 K, 22000 kPa, x2 = 0.8978	817.5
323.14 K, 23000 kPa, x2 = 0.8978	820.7
323.14 K, 24000 kPa, x2 = 0.8978	823.8
323.14 K, 25000 kPa, x2 = 0.8978	826.7
323.16 K, 9000 kPa, x2 = 0.0955	743.8
323.16 K, 9000 kPa, x2 = 0.2526	747
323.16 K, 10000 kPa, x2 = 0.0955	744.6
323.16 K, 10000 kPa, x2 = 0.2526	747.9
323.16 K, 11000 kPa, x2 = 0.0955	745.4
323.16 K, 11000 kPa, x2 = 0.2526	748.7
323.16 K, 11000 kPa, x2 = 0.7549	778.8
323.16 K, 12000 kPa, x2 = 0.0955	746.2
323.16 K, 12000 kPa, x2 = 0.2526	749.6
323.16 K, 12000 kPa, x2 = 0.7549	781.9
323.16 K, 13000 kPa, x2 = 0.0955	746.9
323.16 K, 13000 kPa, x2 = 0.2526	750.4
323.16 K, 13000 kPa, x2 = 0.7549	785.1
323.16 K, 14000 kPa, x2 = 0.0955	747.7
